The values below come from publication PMC5913406 (British Journal of Pharmacology, 2018).

The target in experiment [1] is T1, human adenosine A1 receptor (Homo sapiens, UniProt P30542).
T1 sequence (P30542 1-326): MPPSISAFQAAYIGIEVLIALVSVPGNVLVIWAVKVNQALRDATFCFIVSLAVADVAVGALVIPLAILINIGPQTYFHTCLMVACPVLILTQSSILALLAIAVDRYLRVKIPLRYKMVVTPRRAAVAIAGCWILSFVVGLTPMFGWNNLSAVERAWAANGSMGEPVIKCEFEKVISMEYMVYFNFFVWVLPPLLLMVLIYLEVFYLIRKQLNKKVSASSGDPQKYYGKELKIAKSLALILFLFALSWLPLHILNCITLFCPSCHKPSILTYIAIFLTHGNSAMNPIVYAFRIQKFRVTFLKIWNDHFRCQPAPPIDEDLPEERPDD
Description: Two‐state competition association assay with [^3H]‐NECA. In kind it is binding.

The test system of experiment [2] is A1 receptor. The settings on record: 25°C; ref Guo et al., 2013; cited from earlier work.
Experiment [3] has as its target T1, human adenosine A1 receptor. Briefly: Competition binding assay: displacement of [^3H]‐NECA on CHOhA1R cell membranes.

In turn, `c1ccc(-c2nc(-c3ccccc3)c3nc(C4CCCC4)[nH]c3n2)cc1` [LUF5962, 8‐cyclopentyl‐2,6‐diphenyl‐9H‐purine] registered a Kb in experiment [1] (KB,2, KB,2 = k8/k7, R2 state, 30°C, DPCPX and LUF5962 values ambiguous) of 0.015 µM. Further, in experiment [1] (read-out: k5 (association rate constant of competitor at R1 state)), the kon was 167000 M⁻¹ s⁻¹. In experiment [1] (read-out: k6 (dissociation rate constant of competitor at R1 state)), the koff was 0.00383 s⁻¹. The association rate in experiment [2] was 2e+06 M⁻¹ s⁻¹. Also, the 50% inhibitory concentration (IC50) in experiment [3] is 0.0741 µM.

For the molecule `CCCn1c(=O)c2[nH]c(C3CCCC3)nc2n(CCC)c1=O` [DPCPX, 1,3‐dipropyl‐8‐cyclopentylxanthine], in experiment [1] (two‐state model, 30°C, mean ± SEM of five experiments), the “k6 (dissociation rate constant of competitor at R1 state)” value was 0.78 ± 1.42 min⁻¹. For the same molecule, in experiment [2], the association rate is 3.33e+06 M⁻¹ s⁻¹.
